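Five compound concentrations were applied to cells in 96-well plates for 48 hours; endpoints were derived by simple linear interpolation of the resulting dose-response curve. At the GI50, growth is halved. TGI: total growth inhibition.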
How the values were obtained:
Experiment in all cases: NCI-60 cell line screen, 48 h
[1] = system: 786-0 renal
[2] = system: A498 renal
[3] = system: A549 NSCLC
[4] = system: ACHN renal
[5] = system: BT-549 breast
[6] = system: CAKI-1 renal
[7] = system: CCRF-CEM leukemia
[8] = system: COLO 205 colon
[9] = system: DU-145 prostate
[10] = system: EKVX NSCLC
[11] = system: HCC-2998 colon
[12] = system: HCT-116 colon
[13] = system: HCT-15 colon
[14] = system: HL-60(TB) leukemia
[15] = system: HOP-62 NSCLC
[16] = system: HOP-92 NSCLC
[17] = system: HS 578T breast
[18] = system: HT29 colon
[19] = system: IGROV1 ovarian
[20] = system: K-562 leukemia
[21] = system: KM12 colon
[22] = system: LOX IMVI melanoma
[23] = system: M14 melanoma
[24] = system: MALME-3M melanoma
[25] = system: MCF7 breast
[26] = system: MDA-MB-231 breast
[27] = system: MOLT-4 leukemia
[28] = system: NCI-H226 lung
[29] = system: NCI-H23 lung
[30] = system: NCI-H460 lung
[31] = system: NCI-H522 lung
[32] = system: NCI/ADR-RES ovarian
[33] = system: OVCAR-3 ovarian
[34] = system: OVCAR-4 ovarian
[35] = system: OVCAR-5 ovarian
[36] = system: OVCAR-8 ovarian
[37] = system: PC-3 prostate
[38] = system: RPMI-8226 leukemia
[39] = system: RXF 393 renal
[40] = system: SF-268 CNS
[41] = system: SF-295 CNS
[42] = system: SF-539 CNS
[43] = system: SK-MEL-2 melanoma
[44] = system: SK-MEL-28 melanoma
[45] = system: SK-MEL-5 melanoma
[46] = system: SK-OV-3 ovarian
[47] = system: SN12C renal
[48] = system: SNB-19 CNS
[49] = system: SNB-75 CNS
[50] = system: SR leukemia
[51] = system: SW-620 colon
[52] = system: T-47D breast
[53] = system: TK-10 renal
[54] = system: U251 CNS
[55] = system: UACC-257 melanoma
[56] = system: UACC-62 melanoma
[57] = system: UO-31 renal

Cc1cc(Cl)cc(NS(=O)(=O)c2ccc(-c3cnc(C4CC4)o3)cc2)c1
GI50 [1]: 1.06 µM | TGI [1]: 15.9 µM | GI50 [2]: 0.0726 µM | TGI [2]: 1.28 µM | GI50 [3]: 0.565 µM | TGI [3]: 16.6 µM | GI50 [4]: 0.758 µM | TGI [4]: 14.1 µM | GI50 [5]: 1.63 µM | TGI [5]: 16.4 µM | GI50 [6]: 0.125 µM | TGI [6]: 14.5 µM | GI50 [7]: 0.172 µM | TGI [7]: 17.7 µM | GI50 [8]: 0.322 µM | TGI [8]: 2.71 µM | GI50 [9]: 0.374 µM | TGI [9]: 15.1 µM | GI50 [10]: 0.499 µM | TGI [10]: 16.7 µM | GI50 [11]: 0.745 µM | TGI [11]: 12.6 µM | GI50 [12]: 0.347 µM | TGI [12]: 11.1 µM | GI50 [13]: 0.106 µM | TGI [13]: 12.1 µM | GI50 [14]: 0.156 µM | TGI [14]: 2.57 µM | GI50 [15]: 0.376 µM | TGI [15]: 16.4 µM | GI50 [16]: 0.151 µM | TGI [16]: 4.28 µM | GI50 [17]: 0.3 µM | TGI [17]: 14.1 µM | GI50 [18]: 0.313 µM | TGI [18]: 12.1 µM | GI50 [19]: 0.331 µM | TGI [19]: 13.5 µM | GI50 [20]: 0.051 µM | TGI [20]: > 33.2 µM | GI50 [21]: 0.303 µM | TGI [21]: 13.3 µM | GI50 [22]: 0.279 µM | TGI [22]: 11.1 µM | GI50 [23]: 0.351 µM | TGI [23]: 14.2 µM | GI50 [24]: 0.712 µM | TGI [24]: 22.2 µM | GI50 [25]: 0.0702 µM | TGI [25]: 13.8 µM | GI50 [26]: 0.656 µM | TGI [26]: 14.5 µM | GI50 [27]: 0.451 µM | TGI [27]: 31.1 µM | GI50 [28]: 0.454 µM | TGI [28]: 9.89 µM | GI50 [29]: 0.52 µM | TGI [29]: 13.8 µM | GI50 [30]: 0.264 µM | TGI [30]: 7.22 µM | GI50 [31]: 0.465 µM | TGI [31]: 14.3 µM | GI50 [32]: 0.161 µM | TGI [32]: 8.91 µM | GI50 [33]: 0.122 µM | TGI [33]: 3.44 µM | GI50 [34]: 1.07 µM | TGI [34]: 19.8 µM | GI50 [35]: 0.565 µM | TGI [35]: 15.5 µM | GI50 [36]: 0.716 µM | TGI [36]: 18 µM | GI50 [37]: 0.205 µM | TGI [37]: 11.9 µM | GI50 [38]: 0.232 µM | TGI [38]: 4.75 µM | GI50 [39]: 0.16 µM | TGI [39]: 0.556 µM | GI50 [40]: 1.27 µM | TGI [40]: 16.5 µM | GI50 [41]: 0.146 µM | TGI [41]: 11 µM | GI50 [42]: 0.27 µM | TGI [42]: 3.2 µM | GI50 [43]: 1.05 µM | TGI [43]: 20.9 µM | GI50 [44]: 1.28 µM | TGI [44]: 19.5 µM | GI50 [45]: 0.322 µM | TGI [45]: 6.98 µM | GI50 [46]: 0.783 µM | TGI [46]: 22.6 µM | GI50 [47]: 0.986 µM | TGI [47]: 13.9 µM | GI50 [48]: 0.412 µM | TGI [48]: 15.6 µM | GI50 [49]: 0.128 µM | TGI [49]: 1.7 µM | GI50 [50]: 0.0465 µM | TGI [50]: 19.1 µM | GI50 [51]: 0.218 µM | TGI [51]: 15.5 µM | GI50 [52]: 0.379 µM | TGI [52]: 26.2 µM | GI50 [53]: 6.22 µM | TGI [53]: 23 µM | GI50 [54]: 0.436 µM | TGI [54]: 15.6 µM | GI50 [55]: 3.18 µM | TGI [55]: 20.8 µM | GI50 [56]: 0.174 µM | TGI [56]: 12 µM | GI50 [57]: 0.798 µM | TGI [57]: 14.8 µM
